Here are results for 32 molecules from patent US7485641B2, “Substituted 3-amino-pyrrolidino-4-lactams” (Pfizer, Inc., priority 2006, dated 2009).

The target of the assay is T1, DPP-IV (Homo sapiens, UniProt P27487).
T1 construct: purchased Enzyme Systems Products SPE-01
As to the kind of experiment: In vitro assay for dipeptidyl peptidase inhibition. The note with it: n-value given in brackets; for IC50: read-out: DPP-IV IC50; for DPP-IV Percent Inhibition at 300 nM / inhibition at 0.3 µM: at 300 nM; for inhibition at 0.3 µM: read-out: DPP-IV Percent Inhibition at 300 nM. The class given is biochemical.

SMILES strings stand for the structures. Where a name gives a salt, the structure may show the parent alone. Where only a bound is given, the exact number is not on record here.

T1 sequence (P27487 whole entry, species assumed): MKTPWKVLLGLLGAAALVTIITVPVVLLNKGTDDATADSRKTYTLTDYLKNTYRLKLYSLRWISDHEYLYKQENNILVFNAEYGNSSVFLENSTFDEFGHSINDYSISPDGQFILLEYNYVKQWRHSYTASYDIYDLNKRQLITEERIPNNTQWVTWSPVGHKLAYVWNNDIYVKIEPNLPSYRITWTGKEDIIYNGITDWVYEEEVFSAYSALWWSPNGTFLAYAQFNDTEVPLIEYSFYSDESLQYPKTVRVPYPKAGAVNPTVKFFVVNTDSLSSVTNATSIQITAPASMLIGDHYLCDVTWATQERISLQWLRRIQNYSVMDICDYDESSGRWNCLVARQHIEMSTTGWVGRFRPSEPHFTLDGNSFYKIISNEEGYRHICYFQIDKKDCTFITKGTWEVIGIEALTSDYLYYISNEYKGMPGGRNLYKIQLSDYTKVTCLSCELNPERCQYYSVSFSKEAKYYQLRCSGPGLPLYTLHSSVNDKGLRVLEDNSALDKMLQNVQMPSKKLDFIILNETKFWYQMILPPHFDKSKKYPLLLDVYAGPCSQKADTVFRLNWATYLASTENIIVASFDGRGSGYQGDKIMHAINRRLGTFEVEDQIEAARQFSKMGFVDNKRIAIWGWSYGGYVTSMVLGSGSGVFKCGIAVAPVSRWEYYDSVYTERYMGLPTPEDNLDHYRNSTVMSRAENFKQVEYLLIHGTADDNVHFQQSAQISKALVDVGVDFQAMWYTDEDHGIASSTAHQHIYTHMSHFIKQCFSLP

Regarding `N[C@H]1CN(c2ncnc(N3CCc4sccc4C3)n2)C[C@@H]1N1CCCCC1=O` [Example 71, 1-{(3S,4S)-4-Amino-1-[4-(6,7-dihydro-4H-thieno[3,2-c]pyridine-5-yl)-[1,3,5]triazin-2-yl]-pyrrolidin-3-yl}-piperidin-2-onetrifluoroacetate], the IC50 (as a rule, the concentration that inhibits the measured activity by half) was found to be 139 nM. For `CCOc1ncc2c(n1)CCN(c1ncnc(N3C[C@H](N)[C@@H](N4CCCCC4=O)C3)n1)C2.O=C(O)C(F)(F)F` [Example 72, 1-((3S,4S)-4-Amino-1-(4-(2-ethoxy-7,8-dihydropyrido[4,3-d]pyrimidin-6(5H)-yl)-1,3,5-triazin-2-yl)pyrrolidin-3-yl)piperidin-2-onetrifluoroacetate], the “DPP-IV Percent Inhibition at 300 nM” value is listed as 13.1%(4). Turning to `N[C@H]1CN(c2cc(NC3CC3)ncn2)C[C@@H]1N1CCCCC1=O` [Example 73, 1-[(3S,4S)-4-Amino-1-(6-cyclopropylamino-pyrimidin-4-yl)-pyrrolidin-3-yl]-piperidin-2-onedihydrochloride], the IC50 stood at 74.2 nM. The same measure, in the same setting: the result for `N[C@H]1CN(c2cc(NC3CC3)ncn2)C[C@@H]1N1CCCC1=O` [Example 74, 1-((3S,4S)-4-Amino-1-(6-cyclopropylamino-pyrimidin-4-yl)pyrrolidin-3-yl)pyrrolidin-2-onetrihydrochloride] reads 1400 nM; that for `N[C@H]1CN(c2ncnc(NC3CCCCC3)n2)C[C@@H]1N1CCCCC1=O` [Example 75, 1-[(3S,4S)-4-Amino-1-(4-cyclohexylamino-[1,3,5]triazin-2-yl)-pyrrolidin-3-yl]-piperidin-2-onetrifluoroacetate], 169 nM.

Turning to `N[C@H]1CN(c2ncnc(N3CCc4nocc4C3)n2)C[C@@H]1N1CCCCC1=O` [Example 76, 1-{(3S,4S)-4-Amino-1-[4-(6,7-dihydro-4H-isoxazolo[4,3-c]pyridine-5-yl)-[1,3,5]triazin-2-yl]-pyrrolidin-3-yl}-piperidin-2-one trifluoroacetate], the half-maximal inhibitory concentration (IC50) amounted to 23.7 nM. The same measure, in the same setting: the result for `N[C@H]1CN(c2cc(N3CCc4nocc4C3)nc(C(F)(F)F)n2)C[C@@H]1N1CC(F)(F)CCC1=O` [Example 77, 1-{(3S,4S)-4-amino-1-[6-(6,7-dihydro-4H-isoxazolo[4,3-c]pyridin-5-yl)-2-trifluoromethyl-pyrimidin-4-yl]-pyrrolidin-3-yl}-5,5-difluoro-piperidin-2-one] reads 33.5 nM; that for `N[C@H]1CN(c2cc(N3CCc4nocc4C3)nc(C(F)(F)F)n2)C[C@@H]1N1CCCCC1=O` [Example 78, 1-((3S,4S)-4-amino-1-(6-(6,7-dihydroisoxazolo[4,3-c]pyridin-5(4H)-yl)-2-(trifluoromethyl)pyrimidin-4-yl)pyrrolidin-3-yl)piperidin-2-one], 39.4 nM. The same measure, in the same setting: the value for `N[C@H]1CN(c2ncnc(N3CCc4nocc4C3)c2F)C[C@@H]1N1CCCCC1=O` [Example 79, 1-((3S,4S)-4-amino-1-(6-(6,7-dihydroisoxazolo[4,3-c]pyridin-5(4H)-yl)-5-fluoropyrimidin-4-yl)pyrrolidin-3-yl)piperidin-2-one] was 61.7 nM. Consider `N[C@H]1CN(c2cc(N3CCc4noc(C(F)(F)F)c4C3)ncn2)C[C@@H]1N1CCCCC1=O` [Example 81, 1-((3S,4S)-4-amino-1-(6-(3-(trifluoromethyl)-6,7-dihydroisoxazolo[4,3-c]pyridin-5(4H)-yl)pyrimidin-4-yl)pyrrolidin-3-yl)piperidin-2-one trifluoroacetate], for which the inhibition (in general, how much of the control response was suppressed) at 0.3 µM worked out at 44.5%.

For the molecule `N[C@H]1CN(c2cc(-c3ccccc3)ncn2)C[C@@H]1N1CC(F)(F)CCC1=O` [Example 82, 1-((3S,4S)-4-amino-1-(6-phenylpyrimidin-4-yl)pyrrolidin-3-yl)-5,5-difluoropiperidin-2-one trifluoroacetate], the IC50 was 28.8 nM. On the same count and under the same terms, the value for `Cc1nc(-c2ccccc2)cc(N2C[C@H](N)[C@@H](N3CC(F)(F)CCC3=O)C2)n1` [Example 83, 1-((3S,4S)-4-amino-1-(2-methyl-6-phenylpyrimidin-4-yl)pyrrolidin-3-yl)-5,5-difluoropiperidin-2-one] was 33.9 nM; that for `N[C@H]1CN(c2ncnc(-c3ccccc3)n2)C[C@@H]1N1CC(F)(F)CCC1=O` [Example 84, 1-((3S,4S)-4-amino-1-(4-phenyl-1,3,5-triazin-2-yl)pyrrolidin-3-yl)-5,5-difluoropiperidin-2-one trifluoroacetate] was 38.7 nM. Still for that read-out and setting: the value for `N[C@H]1CN(c2ncnc(-c3ccccc3)n2)C[C@@H]1N1CCCCC1=O` [Example 85, 1-[(3S,4S)-4-Amino-1-(4-phenyl-[1,3,5]triazin-2-yl)-pyrrolidin-3-yl]-piperidin-2-one hydrochloride] was 59.1 nM; that for `COc1ccc(-c2cc(N3C[C@H](N)[C@@H](N4CCCCC4=O)C3)ncn2)cc1` [Example 86, 1-{(3S,4S)-4-Amino-1-[6-(4-methoxy-phenyl)-pyrimidin-4-yl]-pyrrolidin-3-yl}-piperidin-2-one hydrochloride] was 55.3 nM. Regarding `COc1ccc(-c2cc(N3C[C@H](N)[C@@H](N4CCCCC4=O)C3)ncn2)cn1` [Example 87, 1-{(3S,4S)-4-Amino-1-[6-(6-methoxy-pyridin-3-yl)-pyrimidin-4-yl]pyrrolidin-3-yl}-piperidin-2-one dihydrochloride], the half-maximal inhibitory concentration (IC50) was found to be 38.6 nM. Still for that read-out and setting: the result for `N[C@H]1CN(c2cc(Oc3cccc(F)c3)ncn2)C[C@@H]1N1CCCCC1=O` [Example 88, 1-((3S,4S)-4-amino-1-(6-(3-fluorophenoxy)pyrimidin-4-yl)pyrrolidin-3-yl)piperidin-2-one] reads 314 nM; that for `CCCOc1cc(N2C[C@H](N)[C@@H](N3CCCCC3=O)C2)ncn1` [Example 89, 1-((3S,4S)-4-Amino-1-(6-propoxypyrimidin-4-yl)pyrrolidin-3-yl)piperidin-2-one trifluoroacetate], 318 nM; that for `CCC[C@H](C)Oc1cc(N2C[C@H](N)[C@@H](N3CCCCC3=O)C2)ncn1` [Example 90, 1-((3S,4S)-4-Amino-1-(6-((S)-pentan-2-yloxy)pyrimidin-4-yl)pyrrolidin-3-yl)piperidin-2-onetrifluoroacetate], 1030 nM. For the molecule `N[C@H]1CN(c2cc(OC3CCCC3)ncn2)C[C@@H]1N1CCCCC1=O` [Example 91, 1-((3S,4S)-4-Amino-1-(6-(cyclopentyloxy)pyrimidin-4-yl)pyrrolidin-3-yl)piperidin-2-onetrifluoroacetate], the inhibition at 0.3 µM came to 32.2%.

For `N[C@H]1CN(c2cc(OCC(F)(F)F)ncn2)C[C@@H]1N1CCCCC1=O` [Example 92, 1-((3S,4S)-4-Amino-1-(6-(2,2,2-trifluoroethoxy)pyrimidin-4-yl)pyrrolidin-3-yl)piperidin-2-one trifluoroacetate], the inhibition at 0.3 µM is 28.9%.

Turning to `CC(Oc1cc(N2C[C@H](N)[C@@H](N3CCCCC3=O)C2)ncn1)C(F)(F)F.O=C(O)C(F)(F)F` (stereo partly drawn) [Example 93, 1-((3S,4S)-4-Amino-1-(6-(1,1,1-trifluoropropan-2-yloxy)pyrimidin-4-yl)pyrrolidin-3-yl)piperidin-2-onetrifluoroacetate], the “DPP-IV Percent Inhibition at 300 nM” value is listed as 13.8%(4). For the molecule `N[C@H]1CN(c2cc(OCC(F)(F)C(F)F)ncn2)C[C@@H]1N1CCCCC1=O` [Example 94, 1-((3S,4S)-4-Amino-1-(6-(2,2,3,3-tetrafluoropropoxy)pyrimidin-4-yl)pyrrolidin-3-yl)piperidin-2-one trifluoroacetate], the inhibition at 0.3 µM was 23.2%. Same read-out and setting: the result for `CC(C)C(C)Oc1cc(N2C[C@H](N)[C@@H](N3CCCCC3=O)C2)ncn1` (stereo partly drawn) [Example 95, 1-((3S,4S)-4-Amino-1-(6-(3-methylbutan-2-yloxy)pyrimidin-4-yl)pyrrolidin-3-yl)piperidin-2-one trifluoroacetate] reads 17.7%.

With `CS(=O)(=O)c1ccccc1S(=O)(=O)Oc1ccc2c(N3C[C@H](N)[C@@H](N4CCCCC4=O)C3)ncnc2c1` [Example 96, 4-((3S,4S)-3-amino-4-(2-oxopiperidin-1-Vl)pyrrolidin-1-yl)quinazolin-7-yl 2-(methylsulfonyl)benzenesulfonate], the IC50 was 1.99 nM. The same measure, in the same setting: the result for `CS(=O)(=O)c1ccccc1S(=O)(=O)Oc1ccc2c(N3C[C@H](N)[C@@H](N4CC(F)(F)CCC4=O)C3)ncnc2c1` [Example 97, 4-((3S,4S)-3-amino-4-(5,5-difluoro-2-oxopiperidin-1-yl)pyrrolidin-1-yl)quinazolin-7-yl 2-(methylsulfonyl)benzenesulfonate] reads less than 1 nM; that for `COc1ccc2c(N3C[C@H](N)[C@@H](N4CC(F)(F)CCC4=O)C3)ncnc2c1` [Example 98, 1-((3S,4S)-4-amino-1-(7-methoxyquinazolin-4-yl)pyrrolidin-3-yl)-5,5-difluoropiperidin-2-one], 34.2 nM; that for `CCSc1ccc2c(N3C[C@H](N)[C@@H](N4CC(F)(F)CCC4=O)C3)ncnc2c1` [Example 99, 1-((3S,4S)-4-amino-1-(7-(ethylthio)quinazolin-4-yl)pyrrolidin-3-yl)-5,5-difluoropiperidin-2-one], 38.4 nM. Still for that read-out and setting: the result for `CC(C)Oc1ccc2c(N3C[C@H](N)[C@@H](N4CC(F)(F)CCC4=O)C3)ncnc2c1` [Example 100, 1-((3S,4S)-4-amino-1-(7-isopropoxyquinazolin-4-yl)pyrrolidin-3-yl)-5,5-difluoropiperidin-2-one] reads 44.7 nM; that for `N[C@H]1CN(c2ncnc3cc(Oc4ccccc4)ccc23)C[C@@H]1N1CC(F)(F)CCC1=O` [Example 101, 1-((3S,4S)-4-amino-1-(7-phenoxyquinazolin-4-yl)pyrrolidin-3-yl)-5,5-difluoropiperidin-2-one], 122 nM.

As to `N[C@H]1CN(c2ncnc3cc(Cl)ccc23)C[C@@H]1N1CCCCC1=O` [Example 102, 1-[(3S,4S)-4-Amino-1-(7-chloro-quinazolin-4-yl)-pyrrolidin-3-yl]-piperidin-2-one hydrochloride], the IC50 was found to be 61.4 nM. Still for that read-out and setting: the value for `COc1ccc2c(N3C[C@H](N)[C@@H](N4CCCCC4=O)C3)ncnc2c1` [Example 103, 1-[(3S,4S)-4-Amino-1-(7-methoxy-quinazolin-4-yl)-pyrrolidin-3-yl]-piperidin-2-one hydrochloride] was 26.1 nM.
